Results published in ChEMBL document CHEMBL1201862, “PubChem BioAssay data set” (2004).
The source made the active and inactive calls.

Assays:
Estrogen receptor = molecular target: T1, Estrogen receptor (Homo sapiens, UniProt P03372);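 note: potency for inhibiting coactivator peptide recruitment to the receptor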
T1 sequence (P03372 whole entry): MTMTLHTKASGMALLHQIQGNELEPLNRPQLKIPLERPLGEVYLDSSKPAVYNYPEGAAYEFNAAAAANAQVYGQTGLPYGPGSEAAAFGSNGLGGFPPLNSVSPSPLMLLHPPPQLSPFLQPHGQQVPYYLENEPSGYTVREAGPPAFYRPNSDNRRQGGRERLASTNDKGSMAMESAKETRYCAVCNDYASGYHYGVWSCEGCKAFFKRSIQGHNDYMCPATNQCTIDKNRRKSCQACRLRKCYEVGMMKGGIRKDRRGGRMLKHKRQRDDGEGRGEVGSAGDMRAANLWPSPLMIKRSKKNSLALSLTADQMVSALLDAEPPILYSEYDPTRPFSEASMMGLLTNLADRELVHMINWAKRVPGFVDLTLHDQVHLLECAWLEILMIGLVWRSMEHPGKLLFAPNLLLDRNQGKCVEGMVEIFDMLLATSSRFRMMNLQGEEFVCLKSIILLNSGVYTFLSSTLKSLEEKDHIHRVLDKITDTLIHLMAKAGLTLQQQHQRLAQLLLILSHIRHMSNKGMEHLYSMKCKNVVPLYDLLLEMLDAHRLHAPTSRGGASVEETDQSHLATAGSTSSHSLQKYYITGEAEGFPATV

Vero = test: mammalian cell viability reduction – secondary assay, cytotoxicity control for West Nile virus antiviral project, dose response (AID 1650); type: functional; details: Chlorocebus sabaeus
[1] = growth inhibition of yeast DHODH-expressing 3D7 parasites – SYBR Green, dry powder samples, dose response (AID 1159570); type: functional, cell-based;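 note: parasite growth measured after 72 hours of compound exposure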
[2] = P. falciparum Dd2 growth inhibitors, dose response, SYBR Green, cherry-picked samples (AID 1159567); type: functional, cell-based
[3] = Dd2 malaria parasite growth inhibition potency – SYBR Green, dry powder samples, dose response (AID 1159566); type: functional, cell-based;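 note: potency for growth inhibition with lower SYBR green DNA signal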
[4] = growth inhibition of PfATP4-mutant resistant parasites – NITD609-resistant line, SYBR Green, dry powder, dose response (AID 1159571); type: functional, cell-based;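 note: parasites synchronized at ring stage by sorbitol before testing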
Paired box protein Pax-8 = Paired box protein Pax-8 (Homo sapiens, UniProt Q06710); test: PAX8 transcriptional activity inhibition in RMG-I – RMG-I cells, luciferase, cherry-pick, dose response (AID 687027); type: functional, cell-based;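 note: luciferase reporter driven by Pax8 target thyroperoxidase promoter measured by SteadyGlo luminescence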
Leucine aminopeptidase = molecular target: T2, Leucine aminopeptidase (Plasmodium falciparum 3D7, UniProt Q8IL11); test: P. falciparum M17LAP inhibitors, primary screen, biochemical, fluorogenic H-Leu-NHMec substrate, 1536-well (AID 1619); type: functional
T2 sequence (Q8IL11 whole entry): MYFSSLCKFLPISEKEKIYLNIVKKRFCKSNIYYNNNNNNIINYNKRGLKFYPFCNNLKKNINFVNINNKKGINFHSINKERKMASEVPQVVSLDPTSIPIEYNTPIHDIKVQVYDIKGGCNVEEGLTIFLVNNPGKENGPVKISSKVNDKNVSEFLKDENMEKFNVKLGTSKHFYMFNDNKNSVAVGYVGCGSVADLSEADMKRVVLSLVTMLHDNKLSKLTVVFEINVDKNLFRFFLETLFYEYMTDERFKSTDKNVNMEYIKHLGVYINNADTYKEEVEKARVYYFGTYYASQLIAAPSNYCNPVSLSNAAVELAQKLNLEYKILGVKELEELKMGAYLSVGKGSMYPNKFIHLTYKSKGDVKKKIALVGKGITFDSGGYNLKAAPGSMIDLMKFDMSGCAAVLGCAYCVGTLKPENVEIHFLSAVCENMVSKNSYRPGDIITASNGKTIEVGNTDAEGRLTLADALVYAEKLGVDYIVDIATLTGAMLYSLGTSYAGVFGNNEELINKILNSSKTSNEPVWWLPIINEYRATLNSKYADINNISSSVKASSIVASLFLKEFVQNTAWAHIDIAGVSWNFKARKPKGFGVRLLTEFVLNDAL

[5] = Trypanosoma cruzi growth suppression in host cells – NIH3T3 host cells, beta-gal luminescence, confirmation (AID 2044); type: functional, cell-based;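 note: intracellular parasites grown in NIH/3T3 mouse fibroblasts as host cells; luminescent beta-galactosidase reporter signal from transgenic T. cruzi replicating inside host cells; inhibitors lower the luminescence signal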
[6] = molecular target: T3, Heat shock factor protein 1 (Mus musculus, UniProt P38532); test: enhancement of HSF1-driven luciferase signal – cell-based, NIH3T3, luminescence, dose retest, confirmation (AID 435004); type: functional;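 note: stress induced by proteasome inhibitor MG132 added 30 min after compound; luciferase reporter driven by HSF1 response element in NIH3T3 cells; actives raise luminescence as potentiators of the MG132 stress response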
T3 sequence (P38532 whole entry): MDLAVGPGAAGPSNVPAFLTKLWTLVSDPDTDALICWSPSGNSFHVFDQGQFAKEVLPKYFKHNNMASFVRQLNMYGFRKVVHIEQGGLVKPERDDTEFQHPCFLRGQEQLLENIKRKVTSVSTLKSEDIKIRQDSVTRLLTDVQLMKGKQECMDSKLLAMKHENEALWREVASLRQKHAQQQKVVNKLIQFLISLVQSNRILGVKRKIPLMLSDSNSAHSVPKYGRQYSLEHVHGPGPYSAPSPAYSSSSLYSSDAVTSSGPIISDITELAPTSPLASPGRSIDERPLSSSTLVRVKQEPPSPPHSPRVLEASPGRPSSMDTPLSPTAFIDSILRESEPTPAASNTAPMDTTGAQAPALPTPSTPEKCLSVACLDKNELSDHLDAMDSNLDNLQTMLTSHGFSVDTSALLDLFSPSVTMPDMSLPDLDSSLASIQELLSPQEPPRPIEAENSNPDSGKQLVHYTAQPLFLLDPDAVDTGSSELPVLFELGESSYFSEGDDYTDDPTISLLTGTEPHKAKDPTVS

Streptococcus = test: GAS UMAA2166 growth inhibition – luminescence, BacTiterGlo, counter-screen for streptokinase expression inhibitor project, dose response (AID 1915); type: functional, organism-based;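 note: potency for reduction of bacterial viability or growth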
[7] = test system: Streptococcus sp. 'group A'; test: Streptococcus pyogenes SK(-)GAS viability under kanamycin – luminescence, BacTiterGlo, confirmation, counter-screen for streptokinase expression inhibitor project, dose response (AID 1900); type: functional, organism-based
[8] = NIH3T3 cell viability loss – ATP luminescence, mouse fibroblasts, counter-screen, dose response (AID 2010); type: functional, cell-based;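 note: cells exposed to compound for about 90 hours before reading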
[9] = Luminescence Cell-Based Dose Retest to Confirm Inhibitors of Cancer Stem Cells. [Related pubchem assays (depositor defined):AID2717, AID2721]; type: functional; details: Homo sapiens
Streptokinase A = molecular target: T4, Streptokinase A (Streptococcus pyogenes serotype M1, UniProt P10520); test: viability-normalized secreted streptokinase activity reduction – plasminogen activation absorbance, OD405, dose response (AID 1914); type: functional, Streptococcus pyogenes M1 GAS;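 note: secreted streptokinase activity via plasminogen activation per viability signal from cell pellet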
T4 sequence (P10520 whole entry): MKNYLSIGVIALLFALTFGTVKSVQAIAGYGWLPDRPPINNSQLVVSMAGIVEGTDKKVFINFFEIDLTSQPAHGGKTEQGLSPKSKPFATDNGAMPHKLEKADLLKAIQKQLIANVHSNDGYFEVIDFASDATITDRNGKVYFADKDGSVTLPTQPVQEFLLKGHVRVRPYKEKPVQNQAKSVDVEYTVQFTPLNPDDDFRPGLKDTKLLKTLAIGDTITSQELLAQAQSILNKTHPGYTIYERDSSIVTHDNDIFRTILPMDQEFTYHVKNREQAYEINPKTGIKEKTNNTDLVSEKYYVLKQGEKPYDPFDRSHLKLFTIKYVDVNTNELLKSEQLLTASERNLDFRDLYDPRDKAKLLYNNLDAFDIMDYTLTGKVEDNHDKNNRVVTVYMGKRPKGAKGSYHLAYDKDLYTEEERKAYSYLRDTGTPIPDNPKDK

[10] = Luminescence Cell-Based Dose Response HTS to Identify Activators of Luciferase Translation or Activity in H4 […] Cells. [Related pubchem assays: 1829 (Project Summary), 1814 (Primary HTS)]; type: functional
[11] = Luminescence Cell-Based Dose Confirmation HTS to Identify Activators of 5'UTR Stem-Loop Driven Alpha-Synuclein mRNA Translation in H4 Neuroglioblastoma Cells. [Related pubchem assays: 1829 (Project Summary), 1814 (Primary HTS)]; type: functional
H4 = test: Luminescence Cell-Based Dose Response HTS to Identify Activators of 5'UTR Stem-Loop Driven Prion Protein mRNA Translation in H4 Neuroglioblastoma Cells. [Related pubchem assays: 1829 (Project Summary), 1814 (Primary HTS)]; type: functional; details: Homo sapiens
[12] = molecular target: T5, Methionyl-tRNA synthetase, putative (Trypanosoma brucei brucei, UniProt Q38C91); type: functional, Trypanosoma brucei brucei strain 927/4 GUTat10.1
T5 sequence (Q38C91 whole entry): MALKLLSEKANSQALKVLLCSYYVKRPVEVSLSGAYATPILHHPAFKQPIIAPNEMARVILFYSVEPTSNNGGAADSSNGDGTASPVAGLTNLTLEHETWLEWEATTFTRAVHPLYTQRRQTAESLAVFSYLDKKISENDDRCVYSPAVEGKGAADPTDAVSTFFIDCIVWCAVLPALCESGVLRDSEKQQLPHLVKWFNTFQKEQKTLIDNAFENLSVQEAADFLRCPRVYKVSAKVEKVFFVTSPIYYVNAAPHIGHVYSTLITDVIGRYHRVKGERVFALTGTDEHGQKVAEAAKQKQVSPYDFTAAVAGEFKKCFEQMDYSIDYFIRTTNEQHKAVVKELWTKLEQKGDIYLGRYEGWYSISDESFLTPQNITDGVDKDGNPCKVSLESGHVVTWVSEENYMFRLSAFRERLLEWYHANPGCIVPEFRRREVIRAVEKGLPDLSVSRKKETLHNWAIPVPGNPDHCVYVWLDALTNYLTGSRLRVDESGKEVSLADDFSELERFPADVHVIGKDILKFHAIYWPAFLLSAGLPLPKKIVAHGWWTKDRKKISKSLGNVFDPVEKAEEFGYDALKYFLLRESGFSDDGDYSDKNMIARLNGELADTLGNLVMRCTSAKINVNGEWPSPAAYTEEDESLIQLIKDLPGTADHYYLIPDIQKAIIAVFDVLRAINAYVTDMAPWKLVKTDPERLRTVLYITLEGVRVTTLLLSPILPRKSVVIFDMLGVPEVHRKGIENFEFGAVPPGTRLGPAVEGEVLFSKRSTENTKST

[13] = molecular target: T5, Methionyl-tRNA synthetase, putative; type: functional, Trypanosoma brucei brucei strain 927/4 GUTat10.1; remark: listed apart in the source
[14] = Counterscreen for inhibitors of Trypanosoma brucei methionyl tRNA synthetase (MetRS): Luminescence-based cell-based high throughput dose response assay to identify compounds that are cytotoxic to Jurkat human T lymphocyte cells.; type: functional
[15] = blockers of bursicon-stimulated LGR2 cAMP reporter – cell-based, HEK293, CRE-luciferase reporter, cherry pick, set 2, dose response (AID 743343); type: functional;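 note: transfected cells were stimulated with diluted bursicon conditioned medium after compound addition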
[16] = blockade of melanocortin 4 receptor signaling – cell-based, plate reader, cherry pick, counter-screen for LGR2 antagonist project, dose response (AID 743444); type: functional;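 note: transfected HEK 293 cells stimulated with alpha-MSH peptide; potency of inhibitors of the alpha-MSH evoked signal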
[17] = toxicity toward HepG2 liver cells – cell-based, plate reader, cherry-pick, antagonist series, cytotoxicity control, dose response (AID 743416); type: functional

Sequence of Paired box protein Pax-8 (Q06710 whole entry): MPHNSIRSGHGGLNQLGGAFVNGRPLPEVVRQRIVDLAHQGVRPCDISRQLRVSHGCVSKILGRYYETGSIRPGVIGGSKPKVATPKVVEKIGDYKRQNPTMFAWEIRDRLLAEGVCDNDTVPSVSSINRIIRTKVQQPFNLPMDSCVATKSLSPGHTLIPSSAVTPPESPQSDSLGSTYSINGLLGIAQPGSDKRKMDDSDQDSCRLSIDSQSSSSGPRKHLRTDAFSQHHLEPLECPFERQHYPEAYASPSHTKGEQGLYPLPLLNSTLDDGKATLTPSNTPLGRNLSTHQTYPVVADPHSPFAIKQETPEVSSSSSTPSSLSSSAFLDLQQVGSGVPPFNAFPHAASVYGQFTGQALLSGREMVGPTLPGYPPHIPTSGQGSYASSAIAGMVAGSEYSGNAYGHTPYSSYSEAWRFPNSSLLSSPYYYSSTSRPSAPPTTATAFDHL

CC1(C)CC(=O)c2cnc(NCC3CCCO3)nc2C1 (centres undefined)
IC50 (Estrogen receptor): > 50 µM (not active)

CCOC(=O)c1c(NC(=O)CCS(=O)(=O)c2ccccc2)sc2c1CCN(C(C)C)C2
CC50 (Vero): 69.1 µM (active)

COc1ccc(-c2ccccc2[C@H]2[C@@H](C#N)N(C(=O)C3CCCCC3)[C@H]2CO)cc1
AC50 [1]: 1.38 µM (active) | AC50 [2]: 1.03 µM (active) | AC50 [3]: 1.52 µM (active) | AC50 [4]: 5.94 µM (active)

O=C(NCC1CCCO1)C(=Cc1cccc([N+](=O)[O-])c1)C(=O)NCC1CCCO1 (centres undefined)
CC50 (Vero): 23.6 µM (active) | AC50 (Paired box protein Pax-8): 3.43 µM (active)

CC(=O)NS(=O)(=O)c1ccc(NC(=O)c2cc(-c3ccc(C)cc3)nc3ccccc23)cc1
IC50 (Leucine aminopeptidase): 13.7 µM (active)

O=C(Nc1cccc(Cl)c1)Nc1csc([N+](=O)[O-])c1
EC50 [5]: 3.47 µM (active) | EC50 [6]: 31.6 µM (active) | CC50 (Vero): > 100 µM (active) | EC50 (Streptococcus): 15.3 µM (active) | EC50 [7]: 9.68 µM (active) | EC50 [8]: > 60 µM (not active) | AC50 (Paired box protein Pax-8): 11.6 µM (active) | AC50 [9]: 4.34 µM (active) | EC50 (Streptokinase A): > 150 µM (not active)

Cc1ccccc1Oc1cc(NC(=O)Cn2cnc([N+](=O)[O-])c2)cc([N+](=O)[O-])c1
EC50 [10]: > 120 µM (not active) | EC50 [11]: > 120 µM (not active) | EC50 (H4): > 120 µM (not active) | IC50 [12]: 52.5 µM (inactive) | IC50 [13]: 51.3 µM (inactive) | IC50 [14]: 37.3 µM (inactive)

CCOC(=O)c1c(NC(=O)CSc2nnc(C)c(=O)[nH]2)sc2c1CCC2
IC50 (Leucine aminopeptidase): 7.77 µM (active)

O=C(Nc1cccc(-c2cnc3ccccc3n2)c1)c1cccc(NC(=O)c2ccco2)c1
IC50 (Estrogen receptor): 13.1 µM (active)

COc1ccc(-n2nnnc2-c2nc3ccccc3s2)cc1
AC50 [15]: 6.52 µM (active) | AC50 [16]: 7.96 µM (active) | AC50 [17]: > 52 µM (inactive)
